According to publication PMC10298512, “Synthesis and Anticancer Evaluation of Novel 7-Aza-Coumarine-3-Carboxamides” (International Journal of Molecular Sciences, 2023):
Read-outs that look alike come from different tables or passages of the source.

How the values were obtained:
[1] = tested on: M-HeLa; assay: MTT cytotoxicity test, M-HeLa cells; format: cell-based, human; details: 24 h incubation, tested at 1–100 µM, three independent experiments, read-out: IC50 (µM) Cancer Cell Lines M-HeLa
[2] = tested on: HuTu 80; assay: MTT cytotoxicity test, HuTu 80 cells; format: cell-based, human; details: for IC50: MTT test, 24 h incubation, tested at 1–100 µM, three independent experiments, read-out: IC50 (µM) Cancer Cell Lines HuTu 80; for selectivity index, SI = IC50(Chang liver)/IC50(HuTu 80): normal Chang liver vs HuTu 80
[3] = tested on: Chang liver; assay: MTT cytotoxicity test, normal Chang liver cells; format: cell-based, human; details: 24 h incubation, tested at 1–100 µM, three independent experiments, read-out: IC50 (µM) Normal Cell Lines Chang Liver

| SMILES | melting point | IC50 ([1]; Homo sapiens, M-HeLa) | IC50 ([2]; Homo sapiens, HuTu80) | IC50 ([3]; Homo sapiens, Chang liver) | selectivity index, SI = IC50(Chang liver)/IC50(HuTu 80) [2] | IC50 [1] | IC50 [2] | IC50 [3] |
| --- | --- | --- | --- | --- | --- | --- | --- | --- |
| Cc1ncc(CCl)c2cc(C(=O)Nc3ccc(NC(=O)c4cc5c(CCl)cnc(C)c5oc4=O)cc3)c(=O)oc12 [7q, N,N′-(1,4-Phenylene)bis(5-(chloromethyl)-8-methyl-2-oxo-2H-pyrano[2,3-c]pyridine-3-carboxamide)] | > 300 °C | 84.3 ± 5.9 µM | 95.4 ± 6.5 µM | > 100 µM |  |  |  |  |
| COc1cccc2c1C(=O)c1c(O)c3c(c(O)c1C2=O)C[C@@](O)(C(=O)CO)C[C@@H]3O[C@H]1C[C@H](N)[C@H](O)[C@H](C)O1 [Doxorubicin, reference compound] |  | 3 ± 0.2 µM | 3 ± 0.2 µM | 3 ± 0.1 µM | 1 |  |  |  |
| Cc1ncc(CCl)c2cc(C(=O)Nc3cccc(NC(=O)c4cc5c(CCl)cnc(C)c5oc4=O)c3)c(=O)oc12 [7p, N,N′-(1,3-Phenylene)bis(5-(chloromethyl)-8-methyl-2-oxo-2H-pyrano[2,3-c]pyridine-3-carboxamide)] | 274 °C (dec.) | 63 ± 4.4 µM | 81.5 ± 5.7 µM | 37 ± 2.6 µM |  |  |  |  |
| Cc1ncc(COP(=O)(O)O)c2cc(C(=O)O)c(=O)oc12.Nc1ccccn1 [8e, Pyridin-2-aminium 8-methyl-2-oxo-5-((phosphonooxy)methyl)-2H-pyrano[2,3-c]pyridine-3-carboxylate] |  |  |  |  |  | 99.5 ± 7.1 µM | 59 ± 4.1 µM | 78.4 ± 6.3 µM |
| Cc1ncc(CO)c2c1OC1=C(C(=O)CC(C)(C)C1)C2C1=C(O)CC(C)(C)CC1=O (stereo not shown) [compound 4, 5-(2-hydroxy-4,4-dimethyl-6-oxocyclohex-1-en-1-yl)-4-(hydroxymethyl)-1,8,8-trimethyl-5,7,8,9-tetrahydro-6H-chromeno[2,3-c]pyridin-6-one] | 219 to 224 °C |  |  |  |  |  |  |  |
| Cc1ncc(CO)c2cc(C(=O)O)c(=O)oc12.Cc1ncc(CO)c2cc(C(=O)O)c(=O)oc12.Nc1cccc(N)n1 [8d, Pyridine-2,6-diaminium 5-(hydroxymethyl)-8-methyl-2-oxo-2H-pyrano[2,3-c]pyridine-3-carboxylate] |  |  |  |  |  | > 100 µM | 88.4 ± 7 µM | 64.1 ± 5.1 µM |
| O=c1[nH]cc(F)c(=O)[nH]1 [5-fluorouracil, reference compound] |  | 62 ± 4.7 µM | 65.2 ± 5.4 µM | 86.3 ± 6.5 µM |  |  |  |  |
| Cc1ncc(CO)c2cc(C(=O)O)c(=O)oc12 [3a, 5-(hydroxymethyl)-8-methyl-2-oxo-2H-pyrano[2,3-c]pyridin-7-ium-3-carboxylate] | 249 to 250 °C | 75.5 ± 6 µM | 57.6 ± 4.6 µM | 58 ± 4.7 µM |  |  |  |  |
| Cc1ncc(COP(=O)(O)O)c2cc(C(=O)O)c(=O)oc12 [3b, 8-methyl-2-oxo-5-((phosphonooxy)methyl)-2H-pyrano[2,3-c]pyridin-7-ium-3-carboxylate] | > 300 °C | 70.6 ± 5.7 µM | 60.5 ± 5.3 µM | 70 ± 5.6 µM |  |  |  |  |
| Cc1ncc(CO)c2cc(C(=O)O)c(=O)oc12.NC1CCCCC1 [8b, Cyclohexanaminium 5-(hydroxymethyl)-8-methyl-2-oxo-2H-pyrano[2,3-c]pyridine-3-carboxylate] |  |  |  |  |  | 70.4 ± 5.7 µM | 78.2 ± 6.3 µM | 81 ± 6.5 µM |
| Cc1ncc(CCl)c2cc(C(=O)Nc3cccc(S(=O)(=O)c4cccc(NC(=O)c5cc6c(CCl)cnc(C)c6oc5=O)c4)c3)c(=O)oc12 [7s, N,N′-(Sulfonylbis(3,1-phenylene))bis(5-(chloromethyl)-8-methyl-2-oxo-2H-pyrano[2,3-c]pyridine-3-carboxamide)] | > 300 °C | 80 ± 5.7 µM | 13.8 ± 1.1 µM | 125 ± 11 µM | 9 |  |  |  |

Further lines, with some results ahead:

| melting point | SMILES | IC50 ([1]; Homo sapiens, M-HeLa) | IC50 ([2]; Homo sapiens, HuTu80) | IC50 ([3]; Homo sapiens, Chang liver) | selectivity index, SI = IC50(Chang liver)/IC50(HuTu 80) [2] | IC50 [1] | IC50 [2] | IC50 [3] |
| --- | --- | --- | --- | --- | --- | --- | --- | --- |
| 161 °C (dec.) | C#CCNC(=O)c1cc2c(CCl)cnc(C)c2oc1=O [7g, 5-(Chloromethyl)-8-methyl-2-oxo-N-(prop-2-yn-1-yl)-2H-pyrano[2,3-c]pyridine-3-carboxamide] | 14.1 ± 1.2 µM | 11.2 ± 0.9 µM | 13.9 ± 0.3 µM |  |  |  |  |
| 214 to 215 °C | COc1ccccc1NC(=O)c1cc2c(CCl)cnc(C)c2oc1=O [7b, 5-(Chloromethyl)-N-(2-methoxyphenyl)-8-methyl-2-oxo-2H-pyrano[2,3-c]pyridine-3-carboxamide] | 84.4 ± 5.5 µM | 55.3 ± 3.9 µM | 46 ± 3.2 µM |  |  |  |  |
| 240 °C (dec.) | Cc1ncc(CCl)c2cc(C(=O)Nc3ccc([N+](=O)[O-])cc3Br)c(=O)oc12 [7c, N-(2-Bromo-4-nitrophenyl)-5-(chloromethyl)-8-methyl-2-oxo-2H-pyrano[2,3-c]pyridine-3-carboxamide] | 67.4 ± 4.6 µM | 43 ± 3.5 µM | 89.4 ± 6.3 µM |  |  |  |  |
| 239 to 241 °C | Cc1ncc(CCl)c2cc(C(=O)Nc3ccccc3NC(=O)c3cc4c(CCl)cnc(C)c4oc3=O)c(=O)oc12 [7o, N,N′-(1,2-Phenylene)bis(5-(chloromethyl)-8-methyl-2-oxo-2H-pyrano[2,3-c]pyridine-3-carboxamide)] | 22.5 ± 1.8 µM | 3.1 ± 0.2 µM | 11.8 ± 0.9 µM | 3.8 |  |  |  |
| > 300 °C | Cc1ccnc(NS(=O)(=O)c2ccc(NC(=O)c3cc4c(CCl)cnc(C)c4oc3=O)cc2)n1 [7k, 5-(Chloromethyl)-8-methyl-N-(4-(N-(4-methylpyrimidin-2-yl)sulfamoyl)phenyl)-2-oxo-2H-pyrano[2,3-c]pyridine-3-carboxamide] | 47 ± 3.1 µM | 18.1 ± 1.4 µM | 61.3 ± 4.2 µM |  |  |  |  |
| > 300 °C | Cc1ncc(CCl)c2cc(C(=O)Nc3ccc(S(N)(=O)=O)cc3)c(=O)oc12 [7h, 5-(Chloromethyl)-8-methyl-2-oxo-N-(4-sulfamoylphenyl)-2H-pyrano[2,3-c]pyridine-3-carboxamide] | 14.8 ± 1.3 µM | 2.9 ± 0.2 µM | 29.8 ± 2 µM | 10 |  |  |  |
| > 300 °C | Cc1ncc(CCl)c2cc(C(=O)Nc3ccccn3)c(=O)oc12 [7d, 5-(Chloromethyl)-8-methyl-2-oxo-N-(pyridin-2-yl)-2H-pyrano[2,3-c]pyridine-3-carboxamide] | 84 ± 5.9 µM | 62 ± 4.3 µM | 88 ± 6.2 µM |  |  |  |  |
| > 300 °C | Cc1ncc(CCl)c2cc(C(=O)Nc3ccc(S(=O)(=O)Nc4ncccn4)cc3)c(=O)oc12 [7j, 5-(Chloromethyl)-8-methyl-2-oxo-N-(4-(N-(pyrimidin-2-yl)sulfamoyl)phenyl)-2H-pyrano[2,3-c]pyridine-3-carboxamide] | 73.4 ± 5.2 µM | 32 ± 2.1 µM | 73 ± 5.5 µM |  |  |  |  |
| 201 to 205 °C | Cc1ncc(CCl)c2cc(C(=O)N(c3ccccc3)c3ccccc3)c(=O)oc12.Cl [7f, 5-(Chloromethyl)-3-(diphenylcarbamoyl)-8-methyl-2-oxo-2H-pyrano[2,3-c]pyridin-7-ium chloride] | 32 ± 2.2 µM | 17.4 ± 1.3 µM | 48.4 ± 3.3 µM |  |  |  |  |
| > 300 °C | Cc1ncc(CCl)c2cc(C(=O)Nc3cccnc3N)c(=O)oc12 [7e, N-(2-Aminopyridin-3-yl)-5-(chloromethyl)-8-methyl-2-oxo-2H-pyrano[2,3-c]pyridine-3-carboxamide] | 54.3 ± 3.6 µM | 72 ± 5.2 µM | 55.3 ± 3.7 µM |  |  |  |  |
| > 300 °C | CC(=O)NS(=O)(=O)c1ccc(NC(=O)c2cc3c(CCl)cnc(C)c3oc2=O)cc1 [7i, N-(4-(N-Acetylsulfamoyl)phenyl)-5-(chloromethyl)-8-methyl-2-oxo-2H-pyrano[2,3-c]pyridine-3-carboxamide] | 77.8 ± 5.4 µM | 31 ± 1.9 µM | 116 ± 8.1 µM |  |  |  |  |
| 240 °C (dec.) | Cc1ncc(CCl)c2cc(C(=O)NNC(=O)c3ccccc3)c(=O)oc12 [7m, N′-Benzoyl-5-(chloromethyl)-8-methyl-2-oxo-2H-pyrano[2,3-c]pyridine-3-carbohydrazide] | 61.1 ± 4.2 µM | 49.7 ± 3.5 µM | 62.4 ± 4.9 µM |  |  |  |  |
| > 300 °C | Cc1ncc(CCl)c2cc(C(=O)NNC(=O)c3ccncc3)c(=O)oc12 [7n, 5-(Chloromethyl)-N′-isonicotinoyl-8-methyl-2-oxo-2H-pyrano[2,3-c]pyridine-3-carbohydrazide] | 93.1 ± 6.6 µM | 61.2 ± 4.2 µM | 64.1 ± 4.8 µM |  |  |  |  |
| 240 °C (dec.) | Cc1ncc(CCl)c2cc(C(=O)Nc3ccccc3)c(=O)oc12 [7a, 5-(Chloromethyl)-8-methyl-2-oxo-N-phenyl-2aH-pyrano[2,3-c]pyridine-3-carboxamide] | > 100 µM | 59.4 ± 4.8 µM | 56.6 ± 4.5 µM |  |  |  |  |
| > 300 °C | Cc1cc(C)nc(NS(=O)(=O)c2ccc(NC(=O)c3cc4c(CCl)cnc(C)c4oc3=O)cc2)n1 [7l, 5-(Chloromethyl)-N-(4-(N-(4,6-dimethylpyrimidin-2-yl)sulfamoyl)phenyl)-8-methyl-2-oxo-2H-pyrano[2,3-c]pyridine-3-carboxamide] | 62.4 ± 4.4 µM | 52.1 ± 3.4 µM | 126 ± 8.8 µM |  |  |  |  |
